These results are taken from US20080139520A1, “Altering cholesterol and fat uptake by novel allosteric inhibitors of pancreatic phospholipase A2” (priority 2006, published 2008).

Values joined by “and” are separate entries in the source; they are usually repeats but may differ in a detail not shown here. Identical values can stand only once. Like-named read-outs stand apart in the source and are kept apart here.

For one data set, the target named is T1, WT (wild type) pig PLA2 (Sus scrofa, UniProt P00592).
T1 construct: made in house
Kind of data set: PLA2 catalyzed hydrolysis of sonicated DMPC vesicles with added bile salt (pH-stat). It counts as biochemical. Conditions: for effect of bile salt on the rate of hydrolysis (monophasic/biphasic): DMPC vesicles, pancreatic PLA2. The method, then:
Aqueous dispersion of phospholipid was sonicated in a bath type sonicator. Virtually transparent suspension was annealed for at least 4 hours at room temperature before use. Reaction progress for the PLA2 catalyzed hydrolysis of sonicated DMPC (1 mM) vesicles was measured by pH-stat titration (Radiometer) with 1 mM 2-aminopropanediol in 4 ml reaction buffer containing 5 mM CaCl2 for DMPC (or 0.5 mM for DMPM), 1 mM NaCl, […] atmosphere. Reaction was initiated by adding 0.1 μg enzyme in 1-10 μl solution. The pH stat method was also used for monitoring the rate of hydrolysis of DMPM (0.4 mM) vesicles in the presence of polymyxin [27-29], or of the mixed-micelles of POPC with bile salts in 1:2 ratio [13, 30].
Delay before the onset of the stationary phase of the PLA2 catalyzed reaction progress for the hydrolysis of zwitterionic phospholipids has been extensively characterized. […] The apparent rates in FIG. 3 were obtained from the initial slopes of such reaction progress during which <5% of the total substrate is hydrolyzed.
The CMC of the bile salts used in this study range between 0.8 to 5 mM.

Data set [1] has as its target T2, PLA2 (Sus scrofa, UniProt P00592).
T2 construct: made in house
Kind of data set: Isothermal calorimetric titration of PLA2 with bile salt. It counts as binding, pig. Conditions: ITC, 8.5 μM PLA2; for Kd: read-out: KEB. The method, then: ITC titration of PLA2 with <1 mM (below the CMC) bile salt stock solution was carried out on the Microcal calorimeter (model VP-itc) with cell volume of 1.42 ml with stirring at 300 rpm. Successive injections were made every 5 min. Standard software was used for the peak integration. The heat change with the internal calibration associated with the dilution of the titrant in the […] was subtracted from the heat change obtained by the injection of the bile salt in the presence of 8.5 μM PLA2. The net heat change per injection in the presence of PLA2 was integrated to obtain the total heat change as a function of the total added amphiphile concentration.
Background: In ITC the heat of successive injections is recorded.

In data set [2] the target is T2, PLA2. Briefly: Quenching of RET signal from TMA-DPH bound to PLA2 by bile salts. It is filed as binding, pig. Conditions: 1 μM PLA2 and TMA-DPH, pH 8.0. The method, then:
(§1) Fluorescence emission spectrum or time course of the intensity change from tryptophan or the resonance energy transfer probe TMA-DPH were measured in the ratio mode on SLM-Aminco AB2 in a 1 cm cuvette [31, 32] in 1.6 ml stirred buffer containing 1 or 2 μM PLA2 in 10 mM Tris, 5 mM CaCl2 and 20 mM NaCl at pH 8.0 and 24° C. The slit-widths were 4 nm with excitation at 280.

Another data set deals with T3, Wild-Type PLA2 (Sus scrofa, UniProt P00592).
T3 construct: made in house
Kind of data set: Decylsulfate binding to wild-type PLA2 (3W), Trp emission. More on the design: species or system pig. The method, then:
as §1
(§2) For example, as summarized in Table 3, the main effect of the presence of bile salt is on the Trp-signal intensities rather than the dissociation constant for decylsulfate.

The target of another data set is T4, PLA2 W3F/R6W mutant (Sus scrofa, UniProt P00592, R28W/W25F).
T4 construct: made in house
Kind of data set: Decylsulfate binding to W3F/R6W mutant PLA2 (6W), Trp emission. More on the design: species or system pig. The method, then: as §1, §2

Data set [3] addresses T2, PLA2. Kind of data set: PLA2 catalyzed hydrolysis of mixed micelles of POPC with bile salts. It is filed as biochemical, pig. Conditions: 1 mM POPC, 0.7 mole fraction bile salt. The method, then: (§3) Aqueous dispersion of phospholipid was sonicated in a bath type sonicator. Virtually transparent suspension was annealed for at least 4 hours at room temperature before use. Reaction progress for the PLA2 catalyzed hydrolysis of sonicated DMPC (1 mM) vesicles was measured by pH-stat titration (Radiometer) with 1 mM 2-aminopropanediol in 4 ml reaction buffer containing 5 mM CaCl2 for DMPC (or 0.5 mM for DMPM), 1 mM NaCl, and 0.1 mM EDTA at pH 8.0 and 24° C. in the nitrogen purged closed atmosphere. Reaction was initiated by adding 0.1 μg enzyme in 1-10 μl solution. The pH stat method was also used for monitoring the rate of hydrolysis of DMPM (0.4 mM) vesicles in the presence of polymyxin [27-29], or of the mixed-micelles of POPC with bile salts in 1:2 ratio [13, 30].

Data set [4] has as its target T5, human pancreatic IB PLA2 (Homo sapiens, UniProt P04054).
T5 construct: gift of Dr. Suren Tatulian (Orlando, Fla.)
Briefly: Hydrolysis of DMPC vesicles by human IB PLA2 with added bile salt. It counts as biochemical. Conditions: 1 mM DMPC. The method, then:
as §3

The target of data set [5] is T5, human pancreatic IB PLA2. Kind of data set: Rate-lowering of hydrolysis of DMPC + 0.05 mole fraction cholate vesicles by human pancreatic PLA2. It counts as biochemical. Conditions: 0.03 mole fraction; DMPC + 0.05 mole fraction cholate. An excerpt: (§4) Independent support for selective binding of the rate lowering compounds to a regulatory site on PLA2 comes from the rate-lowering effect of such compounds on the hydrolysis of DMPC vesicles containing 0.05 mole fraction cholate.
(§5) Scores of other compounds in guggul were not active.

The next data set deals with T6, pig pancreatic IB PLA2 (Sus scrofa, UniProt P00592).
T6 construct: made in house
Kind of data set: Rate-lowering of hydrolysis of DMPC + 0.05 mole fraction cholate vesicles by pig pancreatic PLA2. It is filed as biochemical. Conditions: for Relative Rate-lowering (%) Activity, pPLA2: 0.03 mole fraction, DMPC + 0.05 mole fraction cholate; for relative effectiveness in lowering the rate with pig pancreatic PLA2: DMPC vesicles containing 0.05 mole fraction cholate, FIG. 6.
Source text: as §4, §5

For data set [6] the following is noted: reported in literature [54-56]; cited from earlier work.

T3 sequence (P00592 23-146): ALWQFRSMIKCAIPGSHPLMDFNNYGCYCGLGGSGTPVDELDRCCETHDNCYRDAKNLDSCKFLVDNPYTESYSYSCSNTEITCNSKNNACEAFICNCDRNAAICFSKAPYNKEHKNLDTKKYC
T2 sequence (P00592 23-146): as above
T6 sequence (P00592 23-146): as above
T1 sequence (P00592 23-146): as above
T4 sequence (P00592 23-146 W25F/R28W): as the sequence (P00592 23-146) above, with W3F, R6W counted along it
T5 sequence (P04054 23-148): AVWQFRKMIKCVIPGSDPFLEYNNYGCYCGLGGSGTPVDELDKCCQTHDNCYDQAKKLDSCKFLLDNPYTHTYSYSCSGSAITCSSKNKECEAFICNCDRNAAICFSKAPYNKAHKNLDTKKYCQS

Regarding `C[C@H](CCC(=O)NCCS(=O)(=O)O)[C@H]1CC[C@H]2[C@@H]3[C@@H](O)C[C@@H]4C[C@H](O)CC[C@]4(C)[C@H]3CC[C@]12C` [TUDOC, tauroursodeoxycholate], the “effect of bile salt on the rate of hydrolysis (monophasic/biphasic)” value (“effect of bile salt … (monophasic/biphasic)” below) at WT (wild type) pig PLA2 is given as “biphasic effect”. Also, at PLA2 [1], the Kd was less than 2 µM. The “efficacy to quench RET signal from TMA-DPH bound to PLA2” value on PLA2 [2] is reported as “most effective”.
As for `CCCCCCCCCCOS(=O)(=O)O` [Decylsulfate], the a1 decylsulfate binding on Wild-Type PLA2 (3W + 0.2 mM TCDOC) is recorded as −0.03; at Wild-Type PLA2 (3W + Chol (0.2 mM cholate)) it was 0.10; on Wild-Type PLA2 (3W, no additive), 0.26; on PLA2 W3F/R6W mutant (6W), −0.07; on PLA2 W3F/R6W mutant (6W + 0.2 mM TCDOC), −0.09. Besides, the a2 decylsulfate binding is −0.07 at Wild-Type PLA2 (3W + 0.2 mM TCDOC); 0.56 at Wild-Type PLA2 (3W, no additive); −0.36 on PLA2 W3F/R6W mutant (6W); −1.1 at PLA2 W3F/R6W mutant (6W + 0.2 mM TCDOC). The n2 decylsulfate binding at Wild-Type PLA2 (3W + 0.2 mM TCDOC) amounted to 6; at Wild-Type PLA2 (3W, no additive) it was 8; on PLA2 W3F/R6W mutant (6W) it was 2.5; on PLA2 W3F/R6W mutant (6W + 0.2 mM TCDOC), 2.0. In addition, the Kd was found to be 540 µM on Wild-Type PLA2 (3W + 0.2 mM TCDOC, read-out: K2^# decylsulfate binding); 50 µM on Wild-Type PLA2 (3W + Chol (0.2 mM cholate), read-out: K1^# decylsulfate binding); 60 µM on Wild-Type PLA2 (3W, no additive, read-out: K1^# decylsulfate binding); 650 µM at Wild-Type PLA2 (3W, no additive, read-out: K2^# decylsulfate binding); 650 µM at PLA2 W3F/R6W mutant (6W + 0.2 mM TCDOC, read-out: K2^# decylsulfate binding); 50 µM on PLA2 W3F/R6W mutant (6W, read-out: K1^# decylsulfate binding). Further, the Kd at PLA2 W3F/R6W mutant (6W, read-out: K2^# decylsulfate binding) is 510 µM. Moreover, the n1 decylsulfate binding was 1.5 at Wild-Type PLA2 (3W + Chol (0.2 mM cholate)); 1.8 and 1.7 on Wild-Type PLA2 (3W, no additive); 2.7 at PLA2 W3F/R6W mutant (6W).
As for `C[C@H](CCC(=O)NCC(=O)O)[C@H]1CC[C@H]2[C@@H]3[C@H](O)C[C@@H]4C[C@H](O)CC[C@]4(C)[C@H]3C[C@H](O)[C@]12C` [glycocholate], at WT (wild type) pig PLA2, the “effect of bile salt … (monophasic/biphasic)” value was “biphasic effect”.
On to `C[C@H](CCC(=O)O)[C@H]1CC[C@H]2[C@@H]3[C@H](O)C[C@@H]4C[C@H](O)CC[C@]4(C)[C@H]3C[C@H](O)[C@]12C` [cholate, reference compound], for which, at WT (wild type) pig PLA2 (1 mM DMPC, 24° C., cholate above 0.04 mM), the “peak rate of hydrolysis of DMPC vesicles” value is 140 s⁻¹. On WT (wild type) pig PLA2, the “effect of bile salt … (monophasic/biphasic)” value is reported as “only a rate increase”. Moreover, the “initial rate of hydrolysis of POPC in mixed micelles” value at PLA2 [3] was found to be 150 s⁻¹. Moreover, the “effect on rate of hydrolysis of DMPC vesicles by human pancreatic IB PLA2” value at human pancreatic IB PLA2 [4] is reported as “increases”. In addition, on PLA2 [1], the “heat change on titration of PLA2” value is given as “No heat change”. The “efficacy to quench RET signal from TMA-DPH bound to PLA2” value on PLA2 [2] is recorded as “least effective”.
`O=C1[C@H](CC[C@H](O)c2ccc(F)cc2)[C@@H](c2ccc(O)cc2)N1c1ccc(F)cc1` [Ezetimibe]: the “Relative Rate-lowering (%) Activity, hPLA2” value on human pancreatic IB PLA2 [5] turned out to be 5%. Moreover, at pig pancreatic IB PLA2, the “Relative Rate-lowering (%) Activity, pPLA2” value is 30% and the “relative effectiveness in lowering the rate with pig pancreatic PLA2” value is “more effective”. Besides, the reported side effects entry in data set [6] is “hepatotoxicity, cholestatic hepatitis, acute autoimmune hepatitis, myopathy, and modulation of monocytic raft assembly”.
Take `CC=C1C(O)C[C@H]2[C@@H]3CCC4=CC(=O)CC[C@]4(C)[C@H]3CC[C@]12C` (stereo partly shown) [Gugguloster-3-one-16-ol]: the “Relative Rate-lowering (%) Activity, hPLA2” value at human pancreatic IB PLA2 [5] came to 56%. For the same compound, on pig pancreatic IB PLA2, the “Relative Rate-lowering (%) Activity, pPLA2” value is 90%.
Regarding `C[C@H](CCC(=O)O)[C@H]1CC[C@H]2[C@@H]3[C@@H](O)C[C@@H]4C[C@H](O)CC[C@]4(C)[C@H]3CC[C@]12C` [UDOC, ursodeoxycholate], the Kd at PLA2 [1] was 2 to 38 µM and 37 µM.
Turning to `CC(=CCCC(C)C1CCC2(C)C3=CCC4C(C)(C)C(O)CCC4(C)C3CCC12C)C(=O)O` (stereo not shown) [Masticadienolic acid], the “Relative Rate-lowering (%) Activity, hPLA2” value on human pancreatic IB PLA2 [5] came to 66%. Moreover, at pig pancreatic IB PLA2, the “Relative Rate-lowering (%) Activity, pPLA2” value is recorded as more than 95% and the “relative effectiveness in lowering the rate with pig pancreatic PLA2” value is “effective by another factor of ten”.
For the compound `C[C@H](CCC(=O)NCC(=O)O)[C@H]1CC[C@H]2[C@@H]3CC[C@@H]4C[C@H](O)CC[C@]4(C)[C@H]3C[C@H](O)[C@]12C` [GDOC, glycodeoxycholate], the “effect of bile salt … (monophasic/biphasic)” value on WT (wild type) pig PLA2 is on record as “biphasic effect”.
As for `C/C=C1\C(=O)C[C@H]2[C@@H]3CCC4=CC(=O)CC[C@]4(C)[C@H]3CC[C@]12C` [Guggulosterone], the “Relative Rate-lowering (%) Activity, hPLA2” value at human pancreatic IB PLA2 [5] worked out at 53%. The “Relative Rate-lowering (%) Activity, pPLA2” value on pig pancreatic IB PLA2 was 85%.
